Marks after values point to notes of the source that are not given here.
Test system: mouse organs
Assay: In vivo activity screening in mice: organ mean total flux (p/s) of luciferase activity after injection of F2 LNP pools (Table 6, FIG. 7A-7C)
Details: luciferase mRNA
Method: Small rodent biodistribution studies were performed in mice (e.g., C57BL/6J, Balb-c, CD-1, etc.). For evaluating LNP biodistribution and tissue activity upon systemic administration, C57BL/6J mice received dose administration by single intravenous injection via tail vein with LNP formulations (individual or pooled) in PBS, at different dose (0.25-3 mg/kg) levels of firefly luciferase mRNA. At predetermined time points (4-6 hours post-injection), the animals were anesthetized via isoflurane and subjected to in-life imaging sessions for bioluminescence using an In Vivo Imaging System (IVIS). All animals were dosed with D-Luciferin at 15 mg/mL via subcutaneous (SC) injection at 0.2 mL/animal. Animals had their abdomen hair shaved using an animal trimmer. They were then placed so their shaved belly faced up toward the IVIS camera. Whole body imaging sessions were performed 10-15 minutes following D-Luciferin administration.
For in detail organ distribution and activity of LNP formulations, ex vivo imaging sessions were also performed. All animals received SC D-Luciferin and were then euthanized by isoflurane overdose, followed by cardiac perfusion with saline. Following perfusion, the organs were collected and subjected to IVIS imaging for luminescence within 10-15 minutes of D-Luciferin injection.
All IVIS images were processed with a computer software to identify the regions of interests for individual organs to detect the total flux (p/s) values as luminescence quantification. Then the total flux values were graphed to evaluate the in vivo activity in each collected organ.
Small rodent biodistribution studies were performed in mice according to the General Study Protocols in Example 3(a). LNPs incorporating lipid compounds were prepared in Formulation F2, with MC3 as lipid compound (Cayman Chemical) prepared using Formulation F2 for comparison. LNP pools (with firefly luciferase mRNA encapsulated) were injected into mice at varying doses, and organ mean total flux (p/s) results (measuring luciferase activity) were then collected according to Example 3(a).
LNPs comprising MC3 used as a control and for cross-mouse comparison. Dose is in mg/kg; LC is Lipid Compound according to Table 1.
Additional screening results for Compounds 7, 13, 14, 26, 33, 38, 39, 40, 48, 60, 61, 89, 103, and 109 in spleen, femur, and muscle are shown in FIG. 7A, FIG. 7B, and FIG. 7C, with MC3 as a used as a control for comparison.

| SMILES | Organ Mean Total Flux Femur (Mouse 5, dose 0.5 mg/kg) | Organ Mean Total Flux Heart (Mouse 5, dose 0.5 mg/kg) | Organ Mean Total Flux Kidney (Mouse 5, dose 0.5 mg/kg) | Organ Mean Total Flux Liver (Mouse 5, dose 0.5 mg/kg) | Organ Mean Total Flux Lung (Mouse 5, dose 0.5 mg/kg) | Organ Mean Total Flux Muscle (Mouse 5, dose 0.5 mg/kg) | Organ Mean Total Flux Pancreas (Mouse 5, dose 0.5 mg/kg) | Organ Mean Total Flux Spleen (Mouse 5, dose 0.5 mg/kg) | Organ Mean Total Flux Femur (Mouse 11, dose 0.5 mg/kg) | Organ Mean Total Flux Heart (Mouse 11, dose 0.5 mg/kg) | Organ Mean Total Flux Kidney (Mouse 11, dose 0.5 mg/kg) | Organ Mean Total Flux Liver (Mouse 11, dose 0.5 mg/kg) | Organ Mean Total Flux Lung (Mouse 11, dose 0.5 mg/kg) | Organ Mean Total Flux Muscle (Mouse 11, dose 0.5 mg/kg) | Organ Mean Total Flux Pancreas (Mouse 11, dose 0.5 mg/kg) | Organ Mean Total Flux Spleen (Mouse 11, dose 0.5 mg/kg) | further results |
| --- | --- | --- | --- | --- | --- | --- | --- | --- | --- | --- | --- | --- | --- | --- | --- | --- | --- |
| CCCCCCCCCC(C)OC(=O)CCCCCCC(=O)OCC(COC(=O)CCCCCCC(=O)OC(C)CCCCCCCCC)(COC(=O)CCCCCCC(=O)OC(C)CCCCCCCCC)COC(=O)CCC(CCCCCC)OC(=O)NCCN1CCCC1 (stereo not shown) [Compound 41, O1-[2,2-bis[[8-(1-methyldecoxy)-8-oxo-octanoyl]oxymethyl]-3-[4-(2-pyrrolidin-1-ylethylcarbamoyloxy)decanoyloxy]propyl]O8-(1-methyldecyl) octanedioate] | 3.8 p/s (×10^6) | 2.2 p/s (×10^6) | 2.8 p/s (×10^6) | 3493 p/s (×10^6) | 18.0 p/s (×10^6) | 10.0 p/s (×10^6) | 0.8 p/s (×10^6) | 2.5 p/s (×10^6) | – | – | – | – | – | – | – | – | – |
| CCCCCCCCCC(C)OC(=O)CCCCCC(=O)OCC(COC(=O)CCCCCC(=O)OC(C)CCCCCCCCC)(COC(=O)CCCCCC(=O)OC(C)CCCCCCCCC)COC(=O)CCC(CCCCCC)OC(=O)NCCN1CCCC1 (stereo not shown) [Compound 42, O1-[2,2-bis[[7-(1-methyldecoxy)-7-oxo-heptanoyl]oxymethyl]-3-[4-(2-pyrrolidin-1-ylethylcarbamoyloxy)decanoyloxy]propyl]O7-(1-methyldecyl) heptanedioate] | 6.2 p/s (×10^6) | 1.7 p/s (×10^6) | 1.9 p/s (×10^6) | 1778 p/s (×10^6) | 13.4 p/s (×10^6) | 25.8 p/s (×10^6) | 1.8 p/s (×10^6) | 4.5 p/s (×10^6) | – | – | – | – | – | – | – | – | – |
| CCCC/C=C\CCOC(=O)CCCCCCC(=O)OCC(COC(=O)CCCCCCC(=O)OCC/C=C\CCCC)(COC(=O)CCCCCCC(=O)OCC/C=C\CCCC)COC(=O)CCC(CCCCCC)OC(=O)NCCN1CCCC1 (stereo not shown) [Compound 43, O8-[2,2-bis[[8-[(Z)-oct-3-enoxy]-8-oxo-octanoyl]oxymethyl]-3-[4-(2-pyrrolidin-1-ylethylcarbamoyloxy)decanoyloxy]propyl]O1-[(Z)-oct-3-enyl]octanedioate] | 3.1 p/s (×10^6) | 0.7 p/s (×10^6) | 1.6 p/s (×10^6) | 669.3 p/s (×10^6) | 12.8 p/s (×10^6) | 8.0 p/s (×10^6) | 2.0 p/s (×10^6) | 9.5 p/s (×10^6) | – | – | – | – | – | – | – | – | – |
| CCCC/C=C\CCOC(=O)CCCCCC(=O)OCC(COC(=O)CCCCCC(=O)OCC/C=C\CCCC)(COC(=O)CCCCCC(=O)OCC/C=C\CCCC)COC(=O)CCC(CCCCCC)OC(=O)NCCN1CCCC1 (stereo not shown) [Compound 44, O7-[2,2-bis[[7-[(Z)-oct-3-enoxy]-7-oxo-heptanoyl]oxymethyl]-3-[4-(2-pyrrolidin-1-ylethylcarbamoyloxy)decanoyloxy]propyl]O1-[(Z)-oct-3-enyl]heptanedioate] | – | – | – | – | – | – | – | – | 5.6 p/s (×10^6) | 0.7 p/s (×10^6) | 1.3 p/s (×10^6) | 415.7 p/s (×10^6) | 6.5 p/s (×10^6) | 22.6 p/s (×10^6) | 3.1 p/s (×10^6) | 36.0 p/s (×10^6) | – |
| CCCCC/C=C\CCCOC(=O)CCCCCC(=O)OCC(COC(=O)CCCCCC(=O)OCCC/C=C\CCCCC)(COC(=O)CCCCCC(=O)OCCC/C=C\CCCCC)COC(=O)CCC(CCCCCC)OC(=O)NCCN1CCCC1 (stereo not shown) [Compound 45, O7-[2,2-bis[[7-[(Z)-dec-4-enoxy]-7-oxo-heptanoyl]oxymethyl]-3-[4-(2-pyrrolidin-1ylethylcarbamoyloxy)decanoyloxy]propyl]O1-[(Z)-dec-4-enyl]heptanedioate] | – | – | – | – | – | – | – | – | 1.0 p/s (×10^6) | 1.1 p/s (×10^6) | 0.9 p/s (×10^6) | 809.3 p/s (×10^6) | 7.2 p/s (×10^6) | 5.6 p/s (×10^6) | 0.5 p/s (×10^6) | 6.0 p/s (×10^6) | – |
| CCCCC/C=C\CCCOC(=O)CCCCCCC(=O)OCC(COC(=O)CCCCCCC(=O)OCCC/C=C\CCCCC)(COC(=O)CCCCCCC(=O)OCCC/C=C\CCCCC)COC(=O)CCC(CCCCCC)OC(=O)NCCN1CCCC1 (stereo not shown) [Compound 46, 8,8′-di((Z)-dec-4-en-1-yl) O′1,O1-(2-(((8-(((Z)-dec-4-en-1-yl)oxy)-8-oxooctanoyl)oxy)methyl)-2-(((4-(((2-(pyrrolidin-1-yl)ethyl)carbamoyl)oxy)decanoyl)oxy)methyl)propane-1,3-diyl) di(octanedioate)] | – | – | – | – | – | – | – | – | 1.8 p/s (×10^6) | 4.1 p/s (×10^6) | 2.1 p/s (×10^6) | 3107 p/s (×10^6) | 17.8 p/s (×10^6) | 4.2 p/s (×10^6) | 0.9 p/s (×10^6) | 1.8 p/s (×10^6) | – |
| CCCCC/C=C\CCCOC(=O)CCCCC(=O)OCC(COC(=O)CCCCC(=O)OCCC/C=C\CCCCC)(COC(=O)CCCCC(=O)OCCC/C=C\CCCCC)COC(=O)CCC(CCCCCC)OC(=O)NCCN1CCCC1 (stereo not shown) [Compound 47, O6-[2,2-bis[[6-[(Z)-dec-4-enoxy]-6-oxo-hexanoyl]oxymethyl]-3-[4-(2-pyrrolidin-1ylethylcarbamoyloxy)decanoyloxy]propyl]O1-[(Z)-dec-4-enyl]hexanedioate] | 15.1 p/s (×10^6) | 1.7 p/s (×10^6) | 2.5 p/s (×10^6) | 974.3 p/s (×10^6) | 25.7 p/s (×10^6) | 62.4 p/s (×10^6) | 4.4 p/s (×10^6) | 67.0 p/s (×10^6) | – | – | – | – | – | – | – | – | – |
| CCCCC/C=C\CCOC(=O)CCCC(=O)OCC(COC(=O)CCCC(=O)OCC/C=C\CCCCC)(COC(=O)CCCC(=O)OCC/C=C\CCCCC)COC(=O)CCC(CCCCCC)OC(=O)NCCN1CCCC1 (stereo not shown) [Compound 49, O5-[2,2-bis[[5-[(Z)-non-3-enoxy]-5-oxo-pentanoyl]oxymethyl]-3-[4-(2-pyrrolidin-1-ylethylcarbamoyloxy)decanoyloxy]-propyl]O1-[(Z)-non-3-enyl]pentanedioate] | – | – | – | – | – | – | – | – | – | – | – | – | – | – | – | – | Organ Mean Total Flux Femur (Mouse 13, dose 0.5 mg/kg): 10.2 p/s (×10^6); Organ Mean Total Flux Heart (Mouse 13, dose 0.5 mg/kg): 0.5 p/s (×10^6); Organ Mean Total Flux Kidney (Mouse 13, dose 0.5 mg/kg): 1.4 p/s (×10^6); Organ Mean Total Flux Liver (Mouse 13, dose 0.5 mg/kg): 185.5 p/s (×10^6); Organ Mean Total Flux Lung (Mouse 13, dose 0.5 mg/kg): 11.8 p/s (×10^6); Organ Mean Total Flux Muscle (Mouse 13, dose 0.5 mg/kg): 2.9 p/s (×10^6); Organ Mean Total Flux Pancreas (Mouse 13, dose 0.5 mg/kg): 7.5 p/s (×10^6); Organ Mean Total Flux Spleen (Mouse 13, dose 0.5 mg/kg): 57.1 p/s (×10^6) |
| CCCCCCCCCOC(=O)CCCCC(=O)OCC(COC(=O)CCCCC(=O)OCCCCCCCCC)(COC(=O)CCCCC(=O)OCCCCCCCCC)COC(=O)CCC(CCCCCC)OC(=O)NCCN1CCCC1 (stereo not shown) [Compound 50, O6-[2,2-bis[(6-nonoxy-6-oxo-hexanoyl)oxymethyl]-3-[4-(2-pyrrolidin-1-ylethylcarbamoyloxy)decanoyloxy]propyl]O1-nonyl hexanedioate] | – | – | – | – | – | – | – | – | – | – | – | – | – | – | – | – | Organ Mean Total Flux Femur (Mouse 3, dose 1.0 mg/kg): 3.8 p/s (×10^6); Organ Mean Total Flux Heart (Mouse 3, dose 1.0 mg/kg): 3.1 p/s (×10^6); Organ Mean Total Flux Kidney (Mouse 3, dose 1.0 mg/kg): 2.1 p/s (×10^6); Organ Mean Total Flux Liver (Mouse 3, dose 1.0 mg/kg): 2413 p/s (×10^6); Organ Mean Total Flux Lung (Mouse 3, dose 1.0 mg/kg): 12.1 p/s (×10^6); Organ Mean Total Flux Muscle (Mouse 3, dose 1.0 mg/kg): 3.8 p/s (×10^6); Organ Mean Total Flux Pancreas (Mouse 3, dose 1.0 mg/kg): 8.8 p/s (×10^6); Organ Mean Total Flux Spleen (Mouse 3, dose 1.0 mg/kg): 9.0 p/s (×10^6); Organ Mean Total Flux Femur (Mouse 13, dose 0.5 mg/kg): 1.2 p/s (×10^6); Organ Mean Total Flux Heart (Mouse 13, dose 0.5 mg/kg): 1.0 p/s (×10^6); Organ Mean Total Flux Kidney (Mouse 13, dose 0.5 mg/kg): 0.7 p/s (×10^6); Organ Mean Total Flux Liver (Mouse 13, dose 0.5 mg/kg): 569.7 p/s (×10^6); Organ Mean Total Flux Lung (Mouse 13, dose 0.5 mg/kg): 4.7 p/s (×10^6); Organ Mean Total Flux Muscle (Mouse 13, dose 0.5 mg/kg): 2.3 p/s (×10^6); Organ Mean Total Flux Pancreas (Mouse 13, dose 0.5 mg/kg): 1.5 p/s (×10^6); Organ Mean Total Flux Spleen (Mouse 13, dose 0.5 mg/kg): 4.7 p/s (×10^6) |
| CCCCCCC(CCCC)COC(=O)CCCCCC(=O)OCC(COC(=O)CCCCCC(=O)OCC(CCCC)CCCCCC)(COC(=O)CCCCCC(=O)OCC(CCCC)CCCCCC)COC(=O)CCC(CCCCCC)OC(=O)NCCN1CCCC1 (stereo not shown) [Compound 51, O7-[2,2-bis[[7-(2-butyloctoxy)-7-oxo-heptanoyl]oxymethyl]-3-[4-(2-pyrrolidin-1ylethylcarbamoyloxy)decanoyloxy]propyl]O1-(2-butyloctyl) heptanedioate] | – | – | – | – | – | – | – | – | – | – | – | – | – | – | – | – | Organ Mean Total Flux Femur (Mouse 3, dose 1.0 mg/kg): 7.5 p/s (×10^6); Organ Mean Total Flux Heart (Mouse 3, dose 1.0 mg/kg): 16.0 p/s (×10^6); Organ Mean Total Flux Kidney (Mouse 3, dose 1.0 mg/kg): 7.2 p/s (×10^6); Organ Mean Total Flux Liver (Mouse 3, dose 1.0 mg/kg): 15467 p/s (×10^6); Organ Mean Total Flux Lung (Mouse 3, dose 1.0 mg/kg): 59.6 p/s (×10^6); Organ Mean Total Flux Muscle (Mouse 3, dose 1.0 mg/kg): 16.5 p/s (×10^6); Organ Mean Total Flux Pancreas (Mouse 3, dose 1.0 mg/kg): 4.9 p/s (×10^6); Organ Mean Total Flux Spleen (Mouse 3, dose 1.0 mg/kg): 9.7 p/s (×10^6) |

— US20260234115A1, “LIPID COMPOUNDS, COMPOSITIONS, AND USES THEREOF” (Liberate Bio, Inc., priority 2023, published 2026)
